Measured values taken from ChEMBL document CHEMBL1641434, “Topical anti-inflammatory activity of boropinic acid and its natural and semi-synthetic derivatives” (2011).

Key:
Type in all cases: functional
[1] = tested on: Mus musculus; experiment: Antiinflammatory activity in CD1 mouse assessed as inhibition of croton oil-induced ear edema at 0.3 umol administered topically per cm'2 of ear relative to control
[2] = tested on: Mus musculus; experiment: Antiinflammatory activity in CD1 mouse assessed as inhibition of croton oil-induced ear edema at 1 umol administered topically per cm'2 of ear relative to control
[3] = tested on: Mus musculus; experiment: Antiinflammatory activity in CD1 mouse assessed as inhibition of croton oil-induced ear edema at 0.1 umol administered topically per cm'2 of ear relative to control
[4] = tested on: Mus musculus; experiment: Antiinflammatory activity in CD1 mouse assessed as inhibition of croton oil-induced ear edema per cm'2 administered topically

Structure (SMILES)	inhibition (INH) [1] [%]	inhibition (INH) [2] [%]	inhibition (INH) [3] [%]	ID50 [4] [µmol]
CC(C)=CCOc1ccc(/C=C/C(=O)O)cc1F	39			
CC(C)=CCOc1ccc(/C=C/C(=O)O)cc1Cl	49	91	25	0.26
CC(C)=CCOc1ccc(/C=C/C(=O)O)cc1Br	19			
CC(C)=CCOc1ccc(/C=C/C(=O)O)cc1I	67	88	30	0.2
CC(C)=CCOc1ccc(/C=C/C(=O)O)cc1C	23			
CC(C)=CCOc1ccc(/C=C/C(=O)O)cc1[N+](=O)[O-]	68	91	33	0.18
CC(C)=CCOc1ccc(/C=C/C(=O)O)cc1N	43	81	22	0.33
CC(C)=CCOc1ccc(/C=C/C(=O)O)cc1	30	67	13	0.5
COc1cc(/C=C/C(=O)O)ccc1OCC=C(C)C [BOROPINIC ACID]	36	55	12	0.72
COc1ccc2c(c1)c(CC(=O)O)c(C)n2C(=O)c1ccc(Cl)cc1 [INDOMETHACIN]	62	87	26	0.23
CC(Cc1ccc(O)c(O)c1)C(C)Cc1ccc(O)c(O)c1 (stereo not given) [NORDIHYDROGUAIARETIC ACID]	33	65	19	0.54
